Calls of active or inactive are those of the source. No cut-off for these calls is given here.
Legend:
[1] = system: Rattus norvegicus; assay: Inhibition of food intake in ip dosed 24 hrs food derived obese Wistar rat after 30 to 240 mins; format: functional, organism-based
[2] = system: Rattus norvegicus; assay: Inhibition of food intake in ip dosed 24 hrs food derived obese Wistar rat after 24 hrs; format: functional, organism-based
[3] = target: T1, Peroxisome proliferator-activated receptor alpha (Homo sapiens, UniProt Q07869); assay: Agonist activity at human PPARalpha transfected in human MCF7 cells after 16 hrs by luciferase reporter gene assay; format: cell-based
T1 sequence (Q07869 whole entry): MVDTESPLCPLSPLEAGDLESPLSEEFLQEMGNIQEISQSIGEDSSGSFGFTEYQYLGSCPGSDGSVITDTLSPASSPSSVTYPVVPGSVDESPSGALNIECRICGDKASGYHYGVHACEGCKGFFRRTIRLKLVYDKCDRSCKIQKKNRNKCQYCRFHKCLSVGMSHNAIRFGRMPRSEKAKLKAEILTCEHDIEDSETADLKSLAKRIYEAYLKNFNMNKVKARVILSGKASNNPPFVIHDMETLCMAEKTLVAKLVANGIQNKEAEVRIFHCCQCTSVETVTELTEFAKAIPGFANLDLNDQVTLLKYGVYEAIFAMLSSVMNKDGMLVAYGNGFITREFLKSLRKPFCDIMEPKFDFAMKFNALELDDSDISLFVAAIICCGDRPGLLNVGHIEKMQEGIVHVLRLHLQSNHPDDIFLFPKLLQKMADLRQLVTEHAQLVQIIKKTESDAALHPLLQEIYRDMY

[4] = target: T2, Peroxisome proliferator-activated receptor gamma (Homo sapiens, UniProt P37231); assay: Agonist activity at human PPARgamma transfected in human MCF7 cells after 16 hrs by luciferase reporter gene assay; format: cell-based
T2 sequence (P37231 whole entry): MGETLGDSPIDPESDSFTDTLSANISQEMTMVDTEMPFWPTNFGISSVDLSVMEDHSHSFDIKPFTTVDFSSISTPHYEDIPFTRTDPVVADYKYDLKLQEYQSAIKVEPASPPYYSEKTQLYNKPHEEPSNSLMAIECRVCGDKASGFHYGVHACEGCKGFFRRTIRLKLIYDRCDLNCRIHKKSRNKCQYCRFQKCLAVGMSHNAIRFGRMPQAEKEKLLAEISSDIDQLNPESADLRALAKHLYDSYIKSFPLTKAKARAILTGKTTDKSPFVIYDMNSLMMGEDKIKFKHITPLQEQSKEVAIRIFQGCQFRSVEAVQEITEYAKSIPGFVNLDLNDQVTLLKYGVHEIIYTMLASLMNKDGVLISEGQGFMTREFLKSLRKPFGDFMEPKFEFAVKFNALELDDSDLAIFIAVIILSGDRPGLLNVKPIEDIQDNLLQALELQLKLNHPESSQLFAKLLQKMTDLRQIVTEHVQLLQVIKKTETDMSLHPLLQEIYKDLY

[5] = system: Rattus norvegicus; assay: Inhibition of food intake in 24 hrs food derived obese Wistar rat at 3 mg/kg, ip after 240 mins; format: functional, organism-based
[6] = system: Rattus norvegicus; assay: Inhibition of food intake in 24 hrs food derived obese Wistar rat at 3 mg/kg, ip measured up to 120 mins relative to vehicle-treated control; format: functional

EC50 [3]	SMILES	also measured
–	CCCCCNC(=O)c1ccc(NC(=O)c2cccc(CN3C(=O)OC[C@H]3Cc3ccccc3)c2)cc1	inhibition [1]: Dose-dependent effect; inhibition [2]: Dose-dependent effect
981 nM	CCCCCC(=O)Nc1ccc(C(=O)Nc2cccc(C[C@H](C)C(=O)O)c2)cc1	–
6620 nM	CCCCCCCCCCCCNC(=O)c1ccc(NC(=O)c2cccc(CN3C(=O)OC[C@H]3Cc3ccccc3)c2)cc1	EC50 [4]: > 100000 nM
> 100000 nM	O=C(NCc1ccc(C(F)(F)F)cc1)c1ccc(NC(=O)c2cccc(CN3C(=O)OC[C@H]3Cc3ccccc3)c2)cc1	EC50 [4]: > 100000 nM
> 100000 nM	O=C(NCC1CCCCC1)c1ccc(NC(=O)c2cccc(CN3C(=O)OC[C@H]3Cc3ccccc3)c2)cc1	EC50 [4]: > 100000 nM
966 nM	C[C@@H](Cc1cccc(NC(=O)c2ccc(NC(=O)Cc3ccc(C(C)(C)C)cc3)cc2)c1)C(=O)N1C(=O)OC[C@H]1Cc1ccccc1	–
> 100000 nM	O=C(NCc1ccccc1)c1ccc(NC(=O)c2cccc(CN3C(=O)OC[C@H]3Cc3ccccc3)c2)cc1	EC50 [4]: > 100000 nM
> 100000 nM	O=C(NCc1ccc(C(F)(F)F)cc1)c1ccc(NC(=O)c2cccc(CN3C(=O)OC[C@@H]3Cc3ccccc3)c2)cc1	–
1920 nM	CCCCCC(=O)Nc1ccc(C(=O)Nc2cccc(C[C@H](C)C(=O)N3C(=O)OC[C@H]3Cc3ccccc3)c2)cc1	–
756 nM	CC(C)(C)c1ccc(CNC(=O)c2ccc(NC(=O)c3cccc(CN4C(=O)OC[C@@H]4Cc4ccccc4)c3)cc2)cc1	–
1980 nM	O=C(Nc1ccc(C(=O)NC2CC2)cc1)c1cccc(CN2C(=O)OC[C@H]2Cc2ccccc2)c1	–
866 nM	C[C@@H](Cc1cccc(NC(=O)c2ccc(NC(=O)Cc3ccc(C(C)(C)C)cc3)cc2)c1)C(=O)O	–
> 100000 nM	CCCCCNC(=O)c1ccc(NC(=O)c2cccc(CN3C(=O)OC[C@@H]3Cc3ccccc3)c2)cc1	–
–	CC(C)(C)c1ccc(CNC(=O)c2ccc(NC(=O)c3cccc(CN4C(=O)OC[C@H]4Cc4ccccc4)c3)cc2)cc1	inhibition [1]: Dose-dependent effect; inhibition [5]: inactive; inhibition in vivo at 3 mg/kg [6]: 50%
